# Reference: patent US7160916B2, “Method of increasing bone density or treating osteoporosis” (Yung Shin Pharmaceutical Ind. Co., Ltd., priority 2003, dated 2007)
# What was measured:
# [1] = test system: Male SD rats; assay: Local injection into proximal tibia, bone histomorphometry (bone growth); assay type: in vivo, rat
# Experimental: Assay of bone resorption of osteoclast: Osteoclast precursors were isolated from rat long bones as mentioned above. The cells were re-suspended in a complete DMEM medium and plated into a calcium phosphate apatite-coated 24-well plate, OAAS (Oscotec, OCT USA Inc.) at 1×10^6 cells/0.5 ml/well. The cells were cultured for 5 days in the presence of M-CSF (20 ng/ml) plus sRANKL (50 ng/ml). Indazole 1 was injected daily for additional 3 days in the absence of M-CSF and sRANKL. Culture was terminated on day 8 and the remaining cells in the plate were lysed using 1 N NaOH. Five images per well were obtained using an inverted microscope (200×), and resorbed area was measured using an image analyzer. Local injection Male SD rats weighing 70–88 gm were used. Implantation of a cannula (22G) was done from the posteriolateral side into the proximal tibial metaphysis in both limbs of rats anesthetized with pentobarbital. The cannula had its outer end in the subcutaneous tissue. Indazole 1 was percutaneously injected through the cannula into the proximal tibia once/day for 1 week. The same concentration of DMSO diluted with normal saline was injected into the right side for comparison. On day 14, the rats were sacrificed and tibiae were fixed in 10% formaldehyde for 48 h at 4° C. Bone histomorphometry: After formalin fixation of tibia was completed, the tibiae were then decalcified in 0.5 N hydrochloric acid, dehydrated in an ascending series of ethanol solution and acetone, and embedded in paraffin. Serial sections (5 μm) were cut longitudinally and stained with Mayer's hematoxylin-eosin solution (Yang et al. (1993) Calcif Tissue Int 52:57–61). Images of the growth plate and proximal tibia were photographed using a photoMicroGraphic Digitize integrate System (MGDS; Total-Integra Technology Co., Ltd., Taipei, Taiwan). Bone volume measurements were performed on the whole secondary spongiosa, which is located under the primary spongiosa and characterized by a network of larger trabeculae. Bone volumes were calculated using an image analysis software. All measurements were done in a single-blind fashion. Bone growth: Male young rats (SD) weighing 70–90 gm were divided into six groups. The average weight of the rats in each group was 73.9±1.1 gm. Indazole 1 was dissolved in DMSO and diluted with saline to a final concentration of 10 μM. One of the six groups was a control group, and the other groups were punctuated with a needle cannula alone, injected with a vehicle using a needle cannula (day 1, once), injected with Indazole 1 (day 1, once), injected with a vehicle using a needle cannula (days 1–7, daily), and injected with Indazole 1 (days 1–7, daily), respectively. […] Trabecular bone in the secondary spongiosa increased by 90% after local injection of Indazole 1 for 7 days.
# [2] = test system: ovariectomized adult female rats; assay: Biomechanical three-point bending test of femurs of OVX rats; assay type: in vivo, rat
# Experimental: Ovariectomy and cut of sciatic nerve: Ovariectomy and cut of sciatic nerve were performed in adult female and male rats (3 month-old), respectively. After surgery, the rats were injected with Indazole 1 (i.p., 1 mg/Kg) or a vehicle daily for 4 weeks. On the day following the last injection, the rats were sacrificed and their tibia and femur were removed. Biomechanical three-point bending test: Mechanical properties of bone tissues were measured via a three-point bending test using a MTS-858 testing machine (MTS System Inc., Minneapolis, Minn.). The span of two support points was 20 millimeters and the deformation rate was 1 mm/min. Load/deformation curves were acquired by Team 490 software (version 4.10, Nicolet Instrument Technologies Inc., Madison, Wis.). Sigma Plot 6.0 software (SPSS Inc., Chicago, Ill.) was used to calculate extrinsic material properties of bone samples, including maximal load, ultimate load, energy to maximal load, energy to ultimate load, and linear stiffness. Energy to maximal load and energy to ultimate load were calculated as the areas under the load/deforming curves. Stiffness was calculated as the slope of the linear portion of the load/deformation curves. The cross-sectional moment of inertia was calculated under the assumption that the cross-sections were elliptically shaped (Turner et al., The effects of fluoridated water on bone strength. Orthop Res (1992) 10: 581–587). Maximal stress, ultimate stress, and elastic modulus (Young's modulus) were calculated using the methods described in Turner et al., Basic biomechanical measurements of bone: a tutorial, Bone (1993) 14:595–608.
# [3] = test system: Primary osteoblast cells; assay: Assay of alkaline phosphatase activity in cultured osteoblasts; assay type: cell-based, rat
# Experimental: Primary osteoblast cultures: Primary osteoblast cells were prepared from calvaria of 18-day-old fetal Sprague-Dawley (SD) rats according to the following method: Pregnant rats were put in anesthesia using intraperitoneal injection of trichloroacetaldehyde (200 mg/kg). The calvaria of the fetal rats were then dissected with aseptic technique. Soft tissues were removed under a dissecting microscope. The calvaria were divided into small pieces and then treated with 0.1% collagenase (Sigma Chemical, St. Louis, Mo.) solution for 10 minutes at 37° C. The cells released from the calvariae by two 20-minute sequential collagenase digestions were pooled and filtered through 70 μm nylon filters (Falcon, BD BioSciences, San Jose, Calif.). The cells were then grown on plastic cell culture dishes in 95:5 air-CO2 with Dulbecco's modified Eagle's medium (DMEM) (Gibco, Grand Island, N.Y.) which was supplemented with 20 mM HEPES and 10% heat-inactivated FCS, 2 mM-glutamine, penicillin (100 U/ml) and streptomycin (100 μg/ml) (pH adjusted to 7.6). The cell medium was changed twice a week. Osteoblasts were confirmed by morphology and expression of alkaline phosphatase (ALP). To examine the maturation of osteoblasts, cells were cultured for up to 14 days in a growth medium containing ascorbic acid (50 μg/ml) (Sigma Chemical, St. Louis, Mo.) and β-glycerophosphate (10 mM) (Sigma Chemical, St. Louis, Mo.) and the medium was changed every 3 day. Assay of alkalinephosphatase activity: Cells cultured in 6-well plates in the presence or absence of Indazole 1 were harvested in 1 ml of 0.2% Nonidet P-40 and cell suspension was disrupted by sonication. After centrifugation at 1500 g for 5 min, ALP activity in the supernatant was measured by the method of Lowry et al (1954) J Biol Chem 207:19–37.
# [4] = femurs, OVX rats, i.p. 1 mg/kg daily for 4 weeks
smiles,measurement,setting,value
"OCc1ccc(-c2nn(Cc3ccccc3)c3ccccc23)o1 [Indazole 1, 1-benzyl-3-(5′-hydroxymethyl-2′-furyl)-indazole]",effect on tibia length,[1]; local injection,not significantly affected
same,Trabecular bone in the secondary spongiosa increased by,[1]; local injection for 7 days,90%
same,bone volume of the secondary spongiosa,"[1]; local injection into proximal tibia, 0.1 nmole, daily for 7 days, then 7 further days, young male rats",significantly increased
same,Tibia length,"[1]; local injection, n=9",3.32±0.02 cm
same,Maximal load,[2]; [4],100.5 ± 3.0 N
same,Ultimate load,[2]; [4],79.8 ± 3.3 N
same,Ultimate stress,[2]; [4],14.6 ± 2.5 Mpa
same,ultimate stress and Young's modulus of femurs compared with sham-operated controls,[2]; treated OVX rats,only slightly lower
same,concentration dependence of the increase of ALP activity,[3],concentration-dependent
same,ALP activity (ALP staining),[3]; 10 μM for 2 weeks,significantly increased
